Data on 22 molecules can be found in patent US20230071840A1, “HETEROCYCLIC GLP-1 AGONISTS” (Gasherbrum Bio, Inc., priority 2020, published 2023).

In the first assay the target is GLP-1 Receptor (Homo sapiens, UniProt P43220). The experiment in a line: GLP-1R agonist cAMP stimulation assay (HEK293/GLP1R/CRE-LUC cells, cAMP dynamic 2 kit). It counts as cell-based. The note with it: GLP1R cAMP Stimulation DR: EC50 (nM). As to the method: Activation of GLP-1 receptor is known to stimulate cyclic AMP (cAMP) production in cells which indicates primary coupling to the Gas subunit of the G protein heterotrimeric complex.
Chain of GLP-1 Receptor (P43220 24-463, species assumed): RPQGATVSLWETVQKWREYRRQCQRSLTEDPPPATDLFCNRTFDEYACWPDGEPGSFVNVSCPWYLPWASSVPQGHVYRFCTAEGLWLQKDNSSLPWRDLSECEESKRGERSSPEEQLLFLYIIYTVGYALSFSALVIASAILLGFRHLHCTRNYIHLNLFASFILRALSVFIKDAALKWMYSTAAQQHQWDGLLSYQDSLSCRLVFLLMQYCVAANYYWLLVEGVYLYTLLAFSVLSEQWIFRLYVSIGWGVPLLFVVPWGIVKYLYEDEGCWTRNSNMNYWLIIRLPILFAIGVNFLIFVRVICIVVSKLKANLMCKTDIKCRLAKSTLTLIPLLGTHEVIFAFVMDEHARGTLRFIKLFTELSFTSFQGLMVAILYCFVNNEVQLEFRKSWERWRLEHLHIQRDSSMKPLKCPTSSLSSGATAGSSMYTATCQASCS
To optimize functional activity directed toward Gas coupling, a HEK293/CRE-Luc cell line developed by HDB stably expressing the GLP-1 Receptor was used. […] Seal the plate and incubate at 37° C. with 5% CO2 for 30 min.
After incubation the cAMP assay signal was generated using cAMP dynamic 2 Kit (Cisbio). 5 μL cAMP-d2 working solution was added to each well, followed with 5 μL Anti-cAMP antibody-cryptate working solution added to each well using ThermoFisher Multidrop Combi. Incubate at room temperature for 1 hour protected from light.
% Activity=[…]×(mean RLU of test sample−mean RLU of vehicle control)/(mean RLU of MAX control−mean RLU of vehicle control))
Molecule `CC(c1cccc(OC2CCN(Cc3nc4ccc(C(=O)O)nc4n3C[C@@H]3CCO3)CC2)n1)c1ccc(Cl)cc1F` (stereo partly drawn) [Compound 128a, 2-{[4-({6-[1-(4-chloro-2-fluorophenyl)ethyl]pyridin-2-yl}oxy)piperidin-1-yl]methyl}-3-{[(2S)-oxetan-2-yl]methyl}-3H-imidazo[4,5-b]pyridine-5-carboxylic acid] gave an EC50 of 1.2 nM.

Still in this assay, the particulars now being: HEK293/CRE-Luc cell line stably expressing the GLP-1 Receptor; 30 min incubation at 37° C.; read-out: GLP1R cAMP Stimulation DR: EC50.
Regarding `N#Cc1ccc(Cc2nccc(O[C@H]3CC[C@H](Cc4nc5ccc(C(=O)O)nc5n4C[C@@H]4CCO4)CC3)n2)cc1` [Compound 182a, 3-{[(2S)-oxetan-2-yl]methyl}-2-{[trans-4-({2-[(4-cyanophenyl)methyl]pyrimidin-4-yl}oxy)cyclohexyl]methyl}-3H-imidazo[4,5-b]pyridine-5-carboxylic acid], the EC50 came to 0.07 nM.
Still for that read-out and setting: the same measure for `N#CC1(Cn2c(CN3CCC(Oc4ccnc(Cc5ccc(Cl)cc5F)n4)CC3)nc3ccc(C(=O)O)cc32)CC1` [Compound 162, 2-{[4-({2-[(4-chloro-2-fluorophenyl)methyl]pyrimidin-4-yl}oxy)piperidin-1-yl]methyl}-1-[(1-cyanocyclopropyl)methyl]-1H-1,3-benzodiazole-6-carboxylic acid]: 0.075 nM; for `O=C(O)c1ccc2nc(C[C@H]3CC[C@H](Oc4nc(Cc5ccc(Cl)cc5)ncc4F)CC3)n(C[C@@H]3CCO3)c2n1` [Compound 188a, 3-{[(2S)-oxetan-2-yl]methyl}-2-{[trans-4-({2-[(4-chlorophenyl)methyl]-5-fluoropyrimidin-4-yl}oxy)cyclohexyl]methyl}-3H-imidazo[4,5-b]pyridine-5-carboxylic acid]: 0.045 nM.
In the case of `O=C(O)c1ccc2nc(CN3CCC(Oc4ccnc(Cc5ccc(Cl)cc5C(F)(F)F)n4)CC3)n(C[C@@H]3CCO3)c2n1` [Compound 166a, 2-({4-[(2-{[4-chloro-2-(trifluoromethyl)phenyl]methyl}pyrimidin-4-yl)oxy]piperidin-1-yl}methyl)-3-{[(2S)-oxetan-2-yl]methyl}-3H-imidazo[4,5-b]pyridine-5-carboxylic acid], the EC50 was 1 nM.
On to `O=C(O)c1ccc2nc(CN3CCC(Oc4ccn(Cc5ccc(Cl)cc5F)n4)CC3)n(C[C@@H]3CCO3)c2c1` [Compound 116a, 2-{[4-({1-[(4-chloro-2-fluorophenyl)methyl]-1H-pyrazol-3-yl}oxy)piperidin-1-yl]methyl}-1-{[(2S)-oxetan-2-yl]methyl}-1H-1,3-benzodiazole-6-carboxylic acid], for which the EC50 came to 2.8 nM.
On to `O=C(O)c1ccc2nc(CN3CCC(Oc4cccc(C(F)(F)c5ccc(Cl)cc5F)n4)CC3)n(C[C@@H]3CCO3)c2n1` [Compound 129a, 2-{[4-({6-[(4-chloro-2-fluorophenyl)difluoromethyl]pyridin-2-yl}oxy)piperidin-1-yl]methyl}-3-{[(2S)-oxetan-2-yl]methyl}-3H-imidazo[4,5-b]pyridine-5-carboxylic acid], for which the EC50 is 0.91 nM.
As for `O=C(O)c1ccc2nc(Cc3ccc(Oc4ccnc(Cc5ccc(Cl)cc5)n4)cc3)n(C[C@@H]3CCO3)c2n1` [Compound 186a, 2-{[4-({2-[(4-chlorophenyl)methyl]pyrimidin-4-yl}oxy)phenyl]methyl}-3-{[(2S)-oxetan-2-yl]methyl}-3H-imidazo[4,5-b]pyridine-5-carboxylic acid], the EC50 came out at 0.6 nM.
Regarding `O=C(O)c1ccc2nc(CN3CCC(Oc4cnn(Cc5ccc(Cl)cc5F)c4)CC3)n(C[C@@H]3CCO3)c2n1` [Compound 184a, 2-{[4-({1-[(4-chloro-2-fluorophenyl)methyl]-1H-pyrazol-4-yl}oxy)piperidin-1-yl]methyl}-3-{[(2S)-oxetan-2-yl]methyl}-3H-imidazo[4,5-b]pyridine-5-carboxylic acid], the EC50 amounted to 90 nM.
Regarding `O=C(O)c1ccc2nc(CN3CCC(Oc4nn(Cc5ccc(Cl)cc5F)cc4Cl)CC3)n(C[C@@H]3CCO3)c2n1` [Compound 183a, 2-{[4-({4-chloro-1-[(4-chloro-2-fluorophenyl)methyl]-1H-pyrazol-3-yl}oxy)piperidin-1-yl]methyl}-3-{[(2S)-oxetan-2-yl]methyl}-3H-imidazo[4,5-b]pyridine-5-carboxylic acid], the EC50 came out at 0.85 nM.
As to `O=C(O)c1ccc2nc(CN3CCC(Oc4ccnc(Cc5ccc(Cl)cc5Cl)n4)CC3)n(C[C@@H]3CCO3)c2n1` [Compound 164a, 2-{[4-({2-[(2,4-dichlorophenyl)methyl]pyrimidin-4-yl}oxy)piperidin-1-yl]methyl}-3-{[(2S)-oxetan-2-yl]methyl}-3H-imidazo[4,5-b]pyridine-5-carboxylic acid], the EC50 was 0.11 nM.
Take `NC(=O)c1ccc2nc(CN3CCC(Oc4ccnc(Cc5ccc(Cl)cc5)n4)CC3)n(C[C@@H]3CCO3)c2n1` [Compound 200a, (S)-2-((4-((2-(4-chlorobenzyl)pyrimidin-4-yl)oxy)piperidin-1-yl)methyl)-3-(oxetan-2-ylmethyl)-3H-imidazo[4,5-b]pyridine-5-carboxamide]: the EC50 was found to be 85 nM.
As to `O=C(O)c1ccc2nc(CN3CCC(c4cccc5nc(Cc6ccc(Cl)cc6F)oc45)CC3)n(C[C@@H]3CCO3)c2n1` [Compound 143a, (S)-2-((4-(2-(4-chloro-2-fluorobenzyl)benzo[d]oxazol-7-yl)piperidin-1-yl)methyl)-3-(oxetan-2-ylmethyl)-3H-imidazo[4,5-b]pyridine-5-carboxylic acid], the EC50 was 0.53 nM.
With `N#CC1(Cn2c(C[C@H]3CC[C@H](Oc4ccnc(Cc5ccc(Cl)cc5)n4)CC3)nc3ccc(C(=O)O)nc32)CC1` [Compound 178a, 3-[(1-cyanocyclopropyl)methyl]-2-{[trans-4-({2-[(4-chlorophenyl)methyl]pyrimidin-4-yl}oxy)cyclohexyl]methyl}-3H-imidazo[4,5-b]pyridine-5-carboxylic acid], the EC50 was 0.1 nM.
For `O=C(O)c1ccc2nc(C[C@H]3CC[C@H](Oc4cccc(Cc5ccc(Cl)cc5)n4)CC3)n(C[C@@H]3CCO3)c2n1` [Compound 181a, 3-{[(2S)-oxetan-2-yl]methyl}-2-{[trans-4-({6-[(4-chlorophenyl)methyl]pyridin-2-yl}oxy)cyclohexyl]methyl}-3H-imidazo[4,5-b]pyridine-5-carboxylic acid], the EC50 worked out at 0.083 nM.
In the case of `O=C(O)c1cnc2nc(CN3CCC(Oc4ccnc(Cc5ccc(Cl)cc5F)n4)CC3)n(C[C@@H]3CCO3)c2c1` [Compound 161a, 2-{[4-({2-[(4-chloro-2-fluorophenyl)methyl]pyrimidin-4-yl}oxy)piperidin-1-yl]methyl}-1-{[(2S)-oxetan-2-yl]methyl}-1H-imidazo[4,5-b]pyridine-6-carboxylic acid], the EC50 came to 0.18 nM.
As to `O=C(O)c1ccc2nc(C[C@H]3CC[C@@H](Oc4cccc(Cc5ccc(Cl)cc5F)n4)CC3)n(C[C@@H]3CCO3)c2n1` [Compound 174a, 3-{[(2S)-oxetan-2-yl]methyl}-2-{[cis-4-({6-[(4-chloro-2-fluorophenyl)methyl]pyridin-2-yl}oxy)cyclohexyl]methyl}-3H-imidazo[4,5-b]pyridine-5-carboxylic acid], the EC50 was 29 nM.
`O=C(O)c1ccc2nc(C[C@H]3CC[C@H](Oc4cccc(Cc5ccc(Cl)cc5F)n4)CC3)n(C[C@@H]3CCO3)c2n1` [Compound 174b, 3-{[(2S)-oxetan-2-yl]methyl}-2-{[trans-4-({6-[(4-chloro-2-fluorophenyl)methyl]pyridin-2-yl}oxy)cyclohexyl]methyl}-3H-imidazo[4,5-b]pyridine-5-carboxylic acid]: the EC50 is 0.14 nM.
With `Clc1ccc(Cc2nccc(OC3CCN(Cc4nc5ccc(-c6nnn[nH]6)nc5n4C[C@@H]4CCO4)CC3)n2)cc1` [Compound 199a, (S)-2-((4-((2-(4-chlorobenzyl)pyrimidin-4-yl)oxy)piperidin-1-yl)methyl)-3-(oxetan-2-ylmethyl)-5-(1H-tetrazol-5-yl)-3H-imidazo[4,5-b]pyridine], the EC50 stood at 0.95 nM.
`O=C(O)c1ccc2nc(CN3CCC(Oc4ccc(=O)n(Cc5ccc(Cl)cc5F)n4)CC3)n(C[C@@H]3CCO3)c2n1` [Compound 144a, 2-{[4-({1-[(4-chloro-2-fluorophenyl)methyl]-6-oxo-1,6-dihydropyridazin-3-yl}oxy)piperidin-1-yl]methyl}-3-{[(2S)-oxetan-2-yl]methyl}-3H-imidazo[4,5-b]pyridine-5-carboxylic acid]: the EC50 was found to be 4.8 nM.
For `O=C(O)c1ccc2nc(CN3CCC(Cc4cccc(Oc5ccc(Cl)cc5F)n4)CC3)n(C[C@@H]3CCO3)c2n1` [Compound 121a, 2-[(4-{[6-(4-chloro-2-fluorophenoxy)pyridin-2-yl]methyl}piperidin-1-yl)methyl]-3-{[(2S)-oxetan-2-yl]methyl}-3H-imidazo[4,5-b]pyridine-5-carboxylic acid], the EC50 is 6.5 nM.
As to `CCOCCn1c(CN2CCC(Oc3ccnc(Cc4ccc(Cl)cc4)n3)CC2)nc2ccc(C(=O)O)nc21` [Compound 194, 2-((4-((2-(4-chlorobenzyl)pyrimidin-4-yl)oxy)piperidin-1-yl)methyl)-3-(2-ethoxyethyl)-3H-imidazo[4,5-b]pyridine-5-carboxylic acid], the EC50 was determined as 2.9 nM.

The same assay, now with this note: HEK293/CRE-Luc cell line stably expressing the GLP-1 Receptor; 30 min incubation at 37° C.; read-out: GLP1R cAMP Stimulation DR: pEC50 (converted).
Take `O=C(O)c1ccc2nc(CN3CCC(Oc4cccc(C(F)(F)c5ccc(Cl)cc5F)n4)CC3)n(C[C@@H]3CCO3)c2n1` [Compound 129a, 2-{[4-({6-[(4-chloro-2-fluorophenyl)difluoromethyl]pyridin-2-yl}oxy)piperidin-1-yl]methyl}-3-{[(2S)-oxetan-2-yl]methyl}-3H-imidazo[4,5-b]pyridine-5-carboxylic acid]: the EC50 was 1 nM.
For `O=C(O)c1ccc2nc(CN3CCC(Oc4cnn(Cc5ccc(Cl)cc5F)c4)CC3)n(C[C@@H]3CCO3)c2n1` [Compound 184a, 2-{[4-({1-[(4-chloro-2-fluorophenyl)methyl]-1H-pyrazol-4-yl}oxy)piperidin-1-yl]methyl}-3-{[(2S)-oxetan-2-yl]methyl}-3H-imidazo[4,5-b]pyridine-5-carboxylic acid], the EC50 was 100 nM.
On the same count and under the same terms, the same measure for `O=C(O)c1ccc2nc(CN3CCC(Oc4ccnc(Cc5ccc(Cl)cc5Cl)n4)CC3)n(C[C@@H]3CCO3)c2n1` [Compound 164a, 2-{[4-({2-[(2,4-dichlorophenyl)methyl]pyrimidin-4-yl}oxy)piperidin-1-yl]methyl}-3-{[(2S)-oxetan-2-yl]methyl}-3H-imidazo[4,5-b]pyridine-5-carboxylic acid]: 0.1 nM; for `Clc1ccc(Cc2nccc(OC3CCN(Cc4nc5ccc(-c6nnn[nH]6)nc5n4C[C@@H]4CCO4)CC3)n2)cc1` [Compound 199a, (S)-2-((4-((2-(4-chlorobenzyl)pyrimidin-4-yl)oxy)piperidin-1-yl)methyl)-3-(oxetan-2-ylmethyl)-5-(1H-tetrazol-5-yl)-3H-imidazo[4,5-b]pyridine]: 1 nM.
